Experimental findings from article PMC4016748, “Using ^15N-Ammonium to Characterise and Map Potassium Binding Sites in Proteins by NMR Spectroscopy” (Chembiochem, 2014) are described below.

For experiment [1], the target named is T1, DnaK-ABD (Thermus thermophilus, UniProt Q56235). As to conditions: 150 mM 15NH4Cl, 5 mM MgCl2, 0.5 mM ADP, 50 mM phosphate, 1 mM DTT, pH 7.5; two sites; 15N-labelled compound.
The next experiment deals with HDAC8 (Homo sapiens, UniProt Q9BY41). Kind of experiment: biochemical.
Sequence of HDAC8 (Q9BY41 whole entry): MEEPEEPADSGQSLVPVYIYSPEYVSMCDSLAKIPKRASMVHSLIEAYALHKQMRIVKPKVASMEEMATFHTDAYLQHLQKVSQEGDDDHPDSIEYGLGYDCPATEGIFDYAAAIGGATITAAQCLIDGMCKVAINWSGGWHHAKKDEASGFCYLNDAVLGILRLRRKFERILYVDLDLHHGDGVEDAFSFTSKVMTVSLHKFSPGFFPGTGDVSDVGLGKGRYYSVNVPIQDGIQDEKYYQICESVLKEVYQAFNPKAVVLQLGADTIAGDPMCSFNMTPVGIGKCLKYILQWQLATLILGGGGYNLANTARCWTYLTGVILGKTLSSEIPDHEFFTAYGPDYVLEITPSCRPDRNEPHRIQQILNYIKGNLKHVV
The target in experiment [2] is T1, DnaK-ABD. Kind of experiment: 1H, […] HSQC NMR of bound […]NH4+ (indirect). The class given is binding. The conditions noted are these: 0.5 mM ADP added together with 50 mM phosphate; 150 mM 15NH4Cl, 5 mM MgCl2, 1 mM DTT, pH 7.5.

T1 sequence (Q56235 1-381): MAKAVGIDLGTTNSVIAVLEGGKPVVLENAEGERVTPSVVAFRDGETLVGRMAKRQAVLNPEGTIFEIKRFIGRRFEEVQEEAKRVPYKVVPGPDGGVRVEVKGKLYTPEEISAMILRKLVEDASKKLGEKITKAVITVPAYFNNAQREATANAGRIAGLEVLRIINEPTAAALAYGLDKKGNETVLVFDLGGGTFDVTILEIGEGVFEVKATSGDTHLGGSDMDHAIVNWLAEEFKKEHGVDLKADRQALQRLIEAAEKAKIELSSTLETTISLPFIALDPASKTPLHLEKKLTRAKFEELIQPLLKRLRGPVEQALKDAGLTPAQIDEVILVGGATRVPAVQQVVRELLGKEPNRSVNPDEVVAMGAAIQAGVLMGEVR

Usually Kd stands for the equilibrium constant for the complex coming apart. As for `N` [15NH4+], the “1H,15N HSQC NMR and 15N-edited NOESY” value at DnaK-ABD [1] was “addition of ADP and Pi resulted in the appearance of two clear peaks”. In addition, the affinity on HDAC8, expressed as Kd, was 13 ± 8 mM. Take `Nc1ncnc2c1ncn2[C@@H]1O[C@H](COP(=O)(O)OP(=O)(O)O)[C@@H](O)[C@H]1O` [ADP]: the “1H,15N HSQC NMR of bound 15NH4+ (indirect)” value at DnaK-ABD [2] was “binding of ADP and Pi protects the ammonium protons from solvent exchange”.
